A word on the EC50: it is the midpoint of the concentration-response curve. A higher EC50 goes with weaker potency.

Experiment [1] can be described thus: Antiviral activity against HIV1 IRLL98 in MT4 cells by MTT assay.
Experiment [2] is described as follows: Antiviral activity against HIV1 Y188L mutant in MT4 cells by MTT assay.
Experiment [3] can be described thus: Antiviral activity against HIV1 K103N mutant in MT4 cells by MTT assay.
A short description of experiment [4]: Antiviral activity against wild type HIV1 NL4-3 in MT4 cells by MTT assay. (In general: Formazan colour is commonly taken as a measure of viable cells.)
The nature of experiment [5]: Antiviral activity against HIV1 Y181C mutant in MT4 cells by MTT assay.

On to `COc1ccc(Sc2nc(Cc3c(F)cccc3F)c(C)c(=O)[nH]2)cc1`, for which the EC50 in experiment [1] was > 57.5 µM; in experiment [2] it was > 57.5 µM; in experiment [3] it was > 57.5 µM; in experiment [4], 0.67 µM.
As for `COc1ccc(Sc2nc(Cc3c(Cl)cccc3Cl)c(C)c(=O)[nH]2)cc1`, the concentration giving a half-maximal response (EC50) is > 61.4 µM in experiment [1]; > 61.4 µM in experiment [2]; > 61.4 µM in experiment [3]; > 61.4 µM in experiment [5]; 26.5 µM in experiment [4].
Take `Cc1c(Cc2c(F)cccc2F)nc(Sc2ccc(Cl)cc2)[nH]c1=O`: the concentration giving a half-maximal response (EC50) in experiment [1] was > 66.1 µM; in experiment [2] it was > 66.1 µM; in experiment [3], 8.01 µM; in experiment [4] it was 0.1 µM.
As for `Cc1c(Cc2c(Cl)cccc2Cl)nc(Sc2ccc(F)cc2F)[nH]c1=O`, the 50% effective concentration (EC50) was 44.7 µM in experiment [1], > 60.5 µM in experiment [2], > 60.5 µM in experiment [3] and 3.36 µM in experiment [4].
As for `Cc1c(Cc2c(F)cccc2F)nc(Sc2ccccc2)[nH]c1=O`, the EC50 in experiment [1] is 16.7 µM; in experiment [2] it was > 72.7 µM; in experiment [3] it was 42.5 µM; in experiment [4] it was 0.09 µM.
Regarding `COc1ccc(Sc2nc(Cc3c(Cl)cccc3Cl)c(C)c(=O)[nH]2)cn1`, the concentration giving a half-maximal response (EC50) was 8.68 µM in experiment [1]; > 61.3 µM in experiment [2]; > 61.7 µM in experiment [3]; 6.52 µM in experiment [5]; 2.72 µM in experiment [4].
For the molecule `Cc1c(Cc2c(Cl)cccc2Cl)nc(Sc2ccc(C#N)cc2)[nH]c1=O`, the EC50 in experiment [1] is > 27.6 µM; in experiment [2], > 27.6 µM; in experiment [3], > 27.6 µM; in experiment [5], 5.1 µM; in experiment [4] it was 2.49 µM.
`Cc1c(Cc2c(F)cccc2F)nc(Sc2ccc(F)cc2F)[nH]c1=O`: the EC50 in experiment [1] was 25.8 µM; in experiment [2] it was > 65.8 µM; in experiment [3], > 65.8 µM; in experiment [4], 0.31 µM.
Take `Cc1c(Cc2c(Cl)cccc2Cl)nc(Sc2ccccc2)[nH]c1=O`: the concentration for a half-maximal effect (EC50) was 4.91 µM in experiment [1]; > 66.3 µM in experiment [2]; > 66.3 µM in experiment [3]; 12.1 µM in experiment [5]; 1.8 µM in experiment [4].
As for `Cc1cn([C@H]2C[C@H](N=[N+]=[N-])[C@@H](CO)O2)c(=O)[nH]c1=O` [1-((2R,4S,5S)-4-Azido-5-hydroxymethyl-tetrahydro-furan-2-yl)-5-methyl-1H-pyrimidine-2,4-dione], the concentration for a half-maximal effect (EC50) in experiment [1] was determined as 0.008 µM; in experiment [2] it was 0.003 µM; in experiment [3] it was 0.003 µM.
